Entries after “also recorded” stand apart in the source; their conditions may differ. Read-outs that look alike come from different tables or passages of the source.
Tests used:
[1] = Promoting excretion of 238Pu(IV) in mice by injected ligands (Table 3); format: in vivo; conditions: 30 μmol/kg i.p.
Source text: (§1) Animal studies were completed using methods detailed in Radiation Protection Dosimetry, 1994, 53, 305: P. W. Durbin et al., "In Vivo Chelation of Am(III), Pu(IV), Np(V) and U(VI) in Mice by TREN-(Me-3,2-HOPO)"; Radiation Protection Dosimetry, 1989, 17, 351: P. W. Durbin et al., "Removal of ^238 Pu(IV) from Mice by Polycatechoylate, -Hydroxamate or -Hydroxypyridinonate Ligands"; Radiation Research, 1984, 99, 85: P. W. Durbin et al., "Specific Sequestering Agents for the Actinides . . . "; Radiation Research, 1984, 99, 106: P. W. Durbin et al., "Removal of Pu and Am from Beagles and Mice . . . "; Radiation Research, 1980, 81, 170: R. D. Lloyd et al., and P. W. Durbin et al., "Specific Sequestering Agents for the Actinides . . . ". The foregoing articles are hereby incorporated by reference.
(§2) Radionuclides used in the animal studies came from a variety of sources. The ^238 Pu(IV) citrate and ^241 Am(III) citrate solutions were prepared for animal injection by 8- to 10-fold dilution with 0.14M NaC1 (pH 4) of concentrated stock solutions (0.08M sodium citrate buffer) that had been held in frozen storage at Lawrence Berkeley Laboratory (hereinafter LBL) for several years. [The ^238 Pu(IV) was originally obtained from D. R. Atherton at the University of Utah Radiobiology Laboratory, Salt Lake City. The ^241 Am(III) solution had been obtained many years earlier from the LBL Actinide Chemistry group.]
The novel chelating agents of the present invention were tested for their effectiveness in promoting excretion of ^238 Pu(IV) in mice by injected ligands as follows. Mice, in groups of five, each received an intravenous injection of 1850 Bq^238 Pu(IV) in 0.2 mL of citrate buffer. One hour later, 30 μmol/kg of ligand was injected intraperitoneally in 0.5 mL of saline. The mice were killed 24 hours after the Pu injection, frozen, and dissected after partial thawing. The ^238 Pu in skeleton, soft tissues, and separated excreta was determined by counting the ^234 U L x-rays. […]

[2] = format: in vivo, mice; conditions: for body weight / kidney weight / plasma urea N: mean ± SD; for toxicity / mortality (in words): mouse, in vivo
Protocol: The test of acute toxicity of these novel ligands was carried out as follows. […] The ligand was dissolved in 0.5 to 1.0 ml of saline at pH 7 to 8. After a period of observation, the mice were killed, selected tissues were removed and fixed for histopathological examination,and unusual findings at autopsy were recorded.

[3] = Promoting excretion of U(VI) in mice by injected ligands (Table 5); format: in vivo; conditions: 30 μmol/kg i.p. at 3 to 5 min after actinide i.v.
Source text: as §1
The ^232 U was obtained from the Isotope Products Laboratory, Burbank, Calif., and ^234,235 U was obtained as U metal from long-held LBL storage. The two U sources were combined and dissolved in 6N HNO3, dried, and redissolved in 0.1N HCl. The daughter radioactivities were removed by elution from a Dowex-50X4 column (22 cm length, 0.7 cm diameter, 1.5 mL min^-1 flow rate) with 3.2N HCl. The U fractions (previously identified by a trial run with ^234,235 U alone) were combined, dried, and redissolved in 0.14M NaCl at pH 5.5.
(§3) One of the novel chelating agents of the present invention, TREN-Me-3,2-HOPO, was also tested for effectiveness in promoting excretion of ^241 AM(III), ^237 Np(V), and ^232 U(VI) by injection into mice, as follows: Mice, in groups of five, each received an intravenous injection of (a) 1100 Bq of ^241 Am(III) in 0.2 mL of citrate buffer, (b) 150 Bq of ^232 UO2 Cl2 plus 3.6 mg of ^235 UO2 Cl2 in 0.2 mL of saline, or (c) 200 Bq of ^237 NpO2 Cl ([…] of ^237 NPO2 Cl) in 0.2 mL of saline. Three to five minutes later, 30 μmol/kg of TREN-Me-3,2-HOPO was injected intraperitoneally in 0.5 mL of saline. The mice were killed 24 hours after the actinide injection, frozen, and dissected after partial thawing. The skeleton, soft tissues, and separated excreta were radioanalyzed by counting the ^241 Am gamma rays, or the alpha particles emitted by ^237 Np or ^232 U (and its ingrowing daughters). Removal of those actinides from mice by injected TREN-Me-3,2-HOPO is summarized in Table 5, which also includes data for mice similarly treated with CaNa3 -DTPA and for actinide-injected controls. […] The structure of Am(III)-TREN-Me-3,2-HOPO is considered to resemble that of the Gd(III) complexes (see Example 20). Complexation of the fraction of Np(V) that is reduced in vivo to Np(IV) is considered to resemble that of Pu(IV). Complexation of U(VI) is considered to take place through binding to UO2^2+.
(§4) ^a Ligands (30 μmol/kg) i.p. at 3 to 5 min after actinide i.v.;

[4] = Promoting excretion of 241Am(III) in mice by injected ligands (Table 5); format: in vivo; conditions: 30 μmol/kg i.p. at 3 to 5 min after actinide i.v.
Source text: as §1, §2, §3, §4

[5] = 30 μmol/kg i.p. at 1 h; reported previously (footnote e); cited from earlier work
[6] = Promoting excretion of 237Np(V) in mice by injected ligands (Table 5); format: in vivo; conditions: 30 μmol/kg i.p. at 3 to 5 min after actinide i.v.
Source text: as §1
The ^237 Np(V) was obtained from J. Bucher of the LBL Actinide Chemistry group as NpO2 Cl in 0.1M HCl. It was diluted to the desired radioactivity concentration in 0.14M NaCl and the pH was adjusted to about 4.5 with NaOH just before use.
as §3, §4

[7] = Fe(III); background; cited from earlier work
[8] = Gd3+ complex stability in aqueous solution; format: binding
[9] = protocol I: 100 μmol/kg × 10 daily i.p., 11 d
[10] = protocol I: 100 μmol/kg × 10 daily i.p., 11 d, of 5 mice
[11] = protocol I: 100 μmol/kg × 10 daily i.p., 21 d
[12] = protocol I: 100 μmol/kg × 10 daily i.p., 21 d, of 5 mice
[13] = protocol II: 500 μmol/kg × 2 in 8 h i.p., 11 d
[14] = protocol II: 500 μmol/kg × 2 in 8 h i.p., 11 d, of 5 (5-LI) or 10 (5-LI-O) mice

Compound: Cn1ccc(C(=O)NCCCCNC(=O)c2ccn(C)c(=O)c2O)c(O)c1=O [4-LI-Me-3,2-HOPO, 1,4-bis[(3-hydroxy-1-methyl-2-oxo-1,2-dihydro-pyridin-4-yl)carboxamido]butane]
- effectiveness of Pu removal, injected (in words) [1]: as effective or more effective than the hexadentate and octadentate chelating agents
- body weight ([2]; protocol IB: 100 μmol/kg, 5 d): 85 ± 8 percent control
- kidney weight ([2]; protocol IB: 100 μmol/kg, 5 d): 190 ± 63 percent control
- plasma urea N ([2]; protocol IB: 100 μmol/kg, 5 d): > 2000 percent control
- no. of survivors ([2]; protocol IB: 100 μmol/kg, 5 d, of 3 mice): 0

Compound: Cn1ccc(C(=O)NCCCCCNC(=O)c2ccn(C)c(=O)c2O)c(O)c1=O [5-LI-Me-3,2-HOPO, 1,5-bis[(3-hydroxy-1-methyl-2-oxo-1,2-dihydro-pyridin-4-yl)carboxamido]pentane]
- effectiveness of Pu removal, injected (in words) [1]: as effective or more effective than the hexadentate and octadentate chelating agents
- toxicity / mortality (in words) [2]: low toxicity
- body weight [2, 9]: 102 ± 5 percent control
- kidney weight [2, 9]: 109 ± 14 percent control
- plasma urea N [2, 9]: 89 ± 1 percent control
- no. of survivors [2, 10]: 5
- body weight [2, 11]: 102 ± 5 percent control
- kidney weight [2, 11]: 100 ± 4 percent control
- plasma urea N [2, 11]: 101 ± 2 percent control
- no. of survivors [2, 12]: 5
- body weight [2, 13]: 99 ± 3 percent control
- kidney weight [2, 13]: 109 ± 9 percent control
- plasma urea N [2, 13]: 98 ± 18 percent control
- no. of survivors [2, 14]: 5

Compound: Cn1ccc(C(=O)NCCOCCNC(=O)c2ccn(C)c(=O)c2O)c(O)c1=O [5-LI-O-Me-3,2-HOPO, 1,5-bis[(3-hydroxy-1-methyl-2-oxo-1,2-dihydro-pyridin-4-yl)carboxamido]-3-oxypentane]
- effectiveness of Pu removal, injected (in words) [1]: as effective or more effective than the hexadentate and octadentate chelating agents
- toxicity / mortality (in words) [2]: low toxicity
- body weight [2, 9]: 103 ± 5 percent control
- kidney weight [2, 9]: 100 ± 19 percent control
- plasma urea N [2, 9]: 83 ± 5 percent control
- no. of survivors [2, 10]: 5
- body weight [2, 11]: 101 ± 5 percent control
- kidney weight [2, 11]: 111 ± 5 percent control
- plasma urea N [2, 11]: 86 ± 18 percent control
- no. of survivors [2, 12]: 5
- body weight [2, 13]: 100 ± 2 percent control
- kidney weight [2, 13]: 108 ± 10 percent control
- plasma urea N [2, 13]: 77 ± 10 percent control
- no. of survivors [2, 14]: 110

Compound: O=C(O)CN(CCN(CC(=O)O)CC(=O)O)CCN(CC(=O)O)CC(=O)O [CaNa3 -DTPA, reference compound]
- U(VI) in kidneys at 24 h [3]: 17 ± 2.8% of injected actinide
- U(VI) in liver at 24 h [3]: 1.0% of injected actinide
- U(VI) in skeleton at 24 h [3]: 19 ± 3.0% of injected actinide
- U(VI) in whole body at 24 h [3]: 38 ± 0.7% of injected actinide
- U(VI) combined excreta ([3]; combined excreta (footnote f)): 62% of injected actinide
- Am(III) in liver at 24 h [4]: 13 ± 1.5% of injected actinide
- Am(III) in skeleton at 24 h [4]: 8.5 ± 0.9% of injected actinide
- Am(III) in soft tissue at 24 h [4]: 1.9 ± 0.3% of injected actinide
- Am(III) in whole body at 24 h [4]: 24 ± 1.3% of injected actinide
- Am(III) excreta: feces and GI contents ([4]; pooled): 8.0% of injected actinide
- Am(III) excreta: urine 0-24 h ([4]; pooled): 68% of injected actinide
- Am(III) in kidneys at 24 h ([4]; pooled): 0.4% of injected actinide
- 238Pu excreta: feces and GI contents [5]: 5.1% of injected ^238 Pu
- 238Pu excreta: urine 0-24 h [5]: 61% of injected ^238 Pu
- 238Pu in kidneys at 24 h [5]: 1.1% of injected ^238 Pu
- 238Pu in liver at 24 h [5]: 17 ± 4.0% of injected ^238 Pu
- 238Pu in skeleton at 24 h [5]: 12 ± 2.3% of injected ^238 Pu
- 238Pu in soft tissue at 24 h [5]: 3.5 ± 1.6% of injected ^238 Pu
- 238Pu in whole body at 24 h [5]: 33 ± 6.6% of injected ^238 Pu
- Np(V) in liver at 24 h [6]: 14 ± 5.7% of injected actinide
- Np(V) in skeleton at 24 h [6]: 40 ± 4.4% of injected actinide
- Np(V) in soft tissue at 24 h [6]: 3.5 ± 0.9% of injected actinide
- Np(V) in whole body at 24 h [6]: 58 ± 8.0% of injected actinide
- Np(V) excreta: feces and GI contents ([6]; pooled): 1.5% of injected actinide
- Np(V) excreta: urine 0-24 h ([6]; pooled): 40% of injected actinide
- Np(V) in kidneys at 24 h ([6]; pooled): 1.3% of injected actinide

Compound: O=C(N[C@H]1COC(=O)[C@@H](NC(=O)c2cccc(O)c2O)COC(=O)[C@@H](NC(=O)c2cccc(O)c2O)COC1=O)c1cccc(O)c1O [enterobactin]
- formation constant Kf [7]: ≈ 10^49
- pM [7]: 35.5

Compound: Gadolinium (III) Ion Complex with N,N,N,-Tris[(3-hydroxy-1-methyl-2-oxo-1,2-dihydropyridin-4-yl)carboxamidoethyl]-amine [Gd(III)-TREN-3,2-HOPO complex]
- pM value for Gd^3+ [8]: 19
- formation constant log β110 ([8]; aqueous solution): 20.3
- stability of the complex (in words) ([8]; aqueous solution): very stable in aqueous solution; also recorded: substantially more stable than any of the Gd^3+ MRI agents in current clinical use

Reference: patent publication US5892029A, “3-hydroxy-2(1H)-pyridinone chelating agents” (priority 1997, dated 1999)
